# What was measured:
# Format in all cases: in vivo, Balb/c-nu mice
# [1] = test system: human gastric cancer cell line NCI-N87; test: Experimental example 1: NCI-N87 gastric cancer subcutaneous xenograft, tumor inhibition; details: D21 after administration; IV, BIW×3W; BT001021 and Immu-132 3 mg/kg, toxins T-030 and SN-38 equimolar to ADC
# Experimental: (§1) Tumor-bearing mice (6 mice/group) with tumor volume of 100-200 mm^3 were randomly grouped (the number of groups was determined according to sample number). The administration volume was 10 ml/kg, and the administration route was tail intravenous injection. The mice were administered twice a week, and tumor diameter was measured with a vernier caliper, and tumor volume was calculated based on the following calculation formula: V=0.5 a×b^2, wherein a and b stand for the long diameter and short diameter of a tumor respectively. Animal deaths were observed and recorded every day.
# (§2) The tumor growth inhibition rate TGI (%) was calculated from the following formula to evaluate tumor inhibitory effect of antibody drug conjugates:
# (§3) Specifically, in the experimental examples 1 and 2, tumor-bearing mice models were constructed by subcutaneous xenograft of a human gastric cancer cell line NCI-N87 or a human triple negative breast cancer cell line HCC1806. After the tumor volume was about 100 mm^3, the mice were randomly grouped, and intravenously administered with BT001021 twice a week for a total of 6 times. Changes in tumor volume and animal body weight were measured twice a week to evaluate the efficacy (tumor inhibitory effect) of the antibody drug conjugate on tumor-bearing mice.
# NCI-N87 cells were cultured in a 1640 culture medium containing 10% fetal bovine serum at 37° C. and 5% CO2. NCI-N87 cells in the exponential growth stage were collected, resuspended in PBS to a suitable concentration, and inoculated subcutaneously into female Balb/c-nu mice to construct gastric cancer models. When the mean tumor volume was about 90 mm^3, the mice were randomly grouped into a physiological saline group, a BT001021 (3 mg/kg, IV, BIW×3W) group, a positive drug Immu-132 (3 mg/kg, IV, BIW×3W) group, a T030 group and a SN38 group according to the tumor size, followed by tail intravenous injection of corresponding drugs twice a week for a total of 6 times. After administration, the tumor volume and body weight of the mice were observed and measured regularly.
# [2] = test system: human breast cancer cell line HCC1806; test: Experimental example 2: HCC1806 breast cancer subcutaneous xenograft, tumor inhibition; details: 10 mg/kg, IV, BIW×3W
# Experimental: as §1, §2, §3
# HCC1806 cells were cultured in a 1640 culture medium containing 10% fetal bovine serum at 37° C. and 5% CO2. HCC1806 cells in the exponential growth stage were collected, resuspended in PBS in a suitable concentration, and inoculated subcutaneously into female Balb/c-nu to construct breast cancer models. When the mean tumor volume was about 130 mm^3, the mice were randomly grouped into a physiological saline group, a BT001021 (10 mg/kg, IV, BIW×3W) group and a positive drug Immu-132 (10 mg/kg, IV, BIW×3W) group according to the tumor size, followed by tail intravenous injection of corresponding drugs twice a week for a total of […]. After administration, the tumor volume of the mice was observed and measured regularly.
# [3] = test system: human non-small cell lung cancer cell line HCC827; test: Experimental example 3: HCC827 non-small cell lung cancer subcutaneous xenograft, tumor inhibition; details: D21 after administration; 10 mg/kg, IV, BIW×3W
# Experimental: as §1, §2
# The experimental example 3 was used to evaluate the inhibitory effect of BT001021 and BT001035 on proliferation of tumor-bearing mice models constructed by subcutaneous xenograft human tumor cells of HCC827 non-small cell lung cancer. […] Then changes in tumor volume and animal body weight were measured twice a week to calculate the efficacy (tumor inhibitory effect) of BT001021 and BT001035 on the tumor-bearing mice.
# HCC827 cells were cultured in a 1640 culture medium containing 10% fetal bovine serum at 37° C. and 5% CO2. […] After administration, the tumor volume and body weight of the mice were observed and measured regularly. […]
substance,measurement,setting,value
"Immu-132: positive drug; ADC prepared according to example 2 of WO2015/012904A2, DAR=5.4",Tumor Volume (mm^3) (x ± S),[1],259.04 ± 42.41 mm^3
same,Tumor growth inhibition rate (%),[1],46.46%
same,tumor growth of xenograft model mice (result in words),[2],did not show significant inhibitory activity
same,Tumor Volume (mm^3) (x ± S),[2]; D17 after administration,2347.05 ± 317.79 mm^3
same,Tumor growth inhibition rate (%),[2]; D17 after administration,11.62%
same,TGI (%),[3],85.19%
same,Tumor Volume (mm^3) (x ± S),[3],145.94 ± 19.72 mm^3

# Source: patent US20240382612A1, “BIOACTIVE CONJUGATE, PREPARATION METHOD THEREFOR AND USE THEREOF” (priority 2017, published 2024)
